Experimental data as given in patent US20150307461A1, “ANTIVIRAL COMPOUNDS” (priority 2012, published 2015).

How the values were obtained:
Experiment in all cases: microbe, parasite or virus in culture
[1] = system: Pseudotyped HCV GT1b particles (HCVpp); format: cell-based, HCV GT1b Con1 strain; details: Hepatitis C virus, 72 h, read-out: HCVpp GT-1b (EC50, μM)
[2] = system: Pseudotyped HCV GT1a particles (HCVpp); format: cell-based, HCV GT1a H77 strain; details: Hepatitis C virus, 72 h, read-out: HCVpp GT-1a (EC50, μM)
[3] = system: pseudotyped VSV G particles (VSVpp); format: cell-based; details: Vesicular stomatitis virus, 72 h, read-out: VSVpp (EC50, μM)

| Compound | EC50 [1] [µM] | EC50 [2] [µM] | EC50 [3] [µM] |
| --- | --- | --- | --- |
| CS(=O)(=O)c1ccc(Nc2n[nH]c(N)n2)cc1 [Compound I-20, N*3*-(4-Methanesulfonyl-phenyl)-1H-[1,2,4]triazole-3,5-diamine] | 100 | 90.6 | 100 |
| Nc1nc(Nc2cc(Cl)cc(C(F)(F)F)c2)n[nH]1 [Compound I-50, N^3-(3-Chloro-5-trifluoromethyl-phenyl)-1H-[1,2,4]triazole-3,5-diamine] | 1.1 | 0.094 | 100 |
| Nc1nc(Nc2ccc(Cl)c([N+](=O)[O-])c2)n[nH]1 [Compound I-13, N*3*-(4-Chloro-3-nitro-phenyl)-1H-[1,2,4]triazole-3,5-diamine] | 4.85 | 0.539 | 100 |
| Nc1nc(Nc2cc(Cl)c(I)c(Cl)c2)n[nH]1 [Compound I-3, N^3-(3,5-Dichloro-4-iodo-phenyl)-1H-[1,2,4]triazole-3,5-diamine] | 0.386 | 0.012 | 32.7 |
| N#Cc1ccc(Nc2n[nH]c(N)n2)cc1C1CC1 [Compound I-35, 4-(5-Amino-1H-1,2,4-triazol-3-ylamino)-2-cyclopropylbenzonitrile] | 1.73 | 0.34 | 62.8 |
| Nc1nc(Nc2cc(Cl)c(F)c(C(F)(F)F)c2)n[nH]1 [Compound I-60, N^3-(3-Chloro-4-fluoro-5-trifluoromethyl-phenyl)-1H-[1,2,4]triazole-3,5-diamine] | 0.489 | 0.071 | 33.3 |
| CS(=O)(=O)c1ccc(Nc2n[nH]c(N)n2)cc1Cl [Compound I-77, N^3-(3-Chloro-4-methanesulfonyl-phenyl)-1H-[1,2,4]triazole-3,5-diamine] | 20.4 | 1.59 | – |
| Nc1nc(Nc2cc(Cl)c(C3CC3)c(Cl)c2)n[nH]1 [Compound I-39] | 0.574 | 0.015 | 37.9 |
| C#Cc1ccc(Nc2n[nH]c(N)n2)cc1Cl [Compound I-9, N*3*-(3-Chloro-4-ethynyl-phenyl)-1H-[1,2,4]triazole-3,5-diamine] | 3.08 | 0.161 | 45.5 |
| N#Cc1ccc(Nc2n[nH]c(N)n2)cc1Cl [Compound I-12, 4-(5-Amino-1H-[1,2,4]triazol-3-ylamino)-2-chloro-benzonitrile] | 4.19 | 0.335 | 100 |
| Nc1nc(Nc2cccc(S(F)(F)(F)(F)F)c2)n[nH]1 [Compound I-70, N*3*-(3-pentafluorosulfur-phenyl)-1H-[1,2,4]triazole-3,5-diamine] | 1.1 | 0.152 | 100 |
| CS(=O)(=O)c1cccc(Nc2n[nH]c(N)n2)c1 [Compound I-21, N*3*-(3-Methanesulfonyl-phenyl)-1H-[1,2,4]triazole-3,5-diamine] | 41.4 | 12.6 | 100 |
| Nc1nc(Nc2ccc(C(F)(F)F)c(Cl)c2)n[nH]1 [Compound I-10, N*3*-(3-Chloro-4-trifluoromethyl-phenyl)-1H-[1,2,4]triazole-3,5-diamine] | 5.14 | 0.368 | 100 |
| N#Cc1c(Cl)cc(Nc2n[nH]c(N)n2)cc1C(F)(F)F [Compound I-43, 4-(5-amino-1H-1,2,4-triazol-3-ylamino)-2-chloro-6-(trifluoromethyl)benzonitrile] | 0.146 | 0.038 | 30.3 |
| CC(C)(C)c1cc(Nc2n[nH]c(N)n2)ccc1C#N [Compound I-16, 4-(5-Amino-1H-[1,2,4]triazol-3-ylamino)-2-tert-butyl-benzonitrile] | 16.1 | 5.34 | 100 |
| Nc1nc(Nc2cccc(Br)c2)n[nH]1 [Compound I-15, N*3*-(3-Bromo-phenyl)-1H-[1,2,4]triazole-3,5-diamine] | 18.1 | 1.41 | 100 |
| CNS(=O)(=O)c1ccc(Nc2n[nH]c(N)n2)cc1 [Compound I-22, 4-(5-Amino-1H-[1,2,4]triazol-3-ylamino)-N-methyl-benzenesulfonamide] | 100 | 100 | 100 |
| CC(C)(C)c1cccc(Nc2n[nH]c(N)n2)c1 [Compound I-6, N^3-(3-tert-Butyl-phenyl)-1H-[1,2,4]triazole-3,5-diamine] | 1.59 | 0.948 | 100 |
| N#Cc1c(Cl)cc(Nc2n[nH]c(N)n2)cc1Cl [Compound I-2, 4-(5-Amino-1H-[1,2,4]triazol-3-ylamino)-2,6-dichloro-benzonitrile] | 0.277 | 0.009 | 64.6 |
| Nc1nc(Nc2cc(F)cc(S(F)(F)(F)(F)F)c2)n[nH]1 [Compound I-73, N*3*-(3-Fluoro-5-pentafluorosulfur-phenyl)-1H-[1,2,4]triazole-3,5-diamine] | 0.188 | 0.035 | 100 |

| Compound | EC50 [1] [µM] | EC50 [2] [µM] | EC50 [3] [µM] |
| --- | --- | --- | --- |
| CC(C)(C)C#Cc1ccc(Nc2n[nH]c(N)n2)cc1Cl [Compound I-80, N^3-[3-Chloro-4-(3,3-dimethyl-but-1-ynyl)-phenyl]-1H-[1,2,4]triazole-3,5-diamine] | 11.2 | 1.12 | 91.6 |
| N#Cc1cc(Cl)cc(Nc2n[nH]c(N)n2)c1 [Compound I-48, 3-(5-Amino-1H-[1,2,4]triazol-3-ylamino)-5-chloro-benzonitrile] | 5.65 | 0.558 | 100 |
| Nc1nc(Nc2ccc3ccccc3c2)n[nH]1 [Compound I-18, N*3*-Naphthalen-2-yl-1H-[1,2,4]triazole-3,5-diamine] | 27.5 | 2.95 | 100 |
| CN(C)C(=O)c1ccc(Nc2n[nH]c(N)n2)cc1 [Compound I-24, 4-(5-Amino-1H-[1,2,4]triazol-3-ylamino)-N,N-dimethyl-benzamide] | 100 | 100 | 100 |
| Nc1nc(Nc2ccc(S(=O)(=O)C(F)(F)F)c(Cl)c2)n[nH]1 [Compound I-7, N*3*-(3-Chloro-4-trifluoromethanesulfonyl-phenyl)-1H-[1,2,4]triazole-3,5-diamine] | 0.91 | 1.28 | 100 |
| CC(C)(C)C#Cc1c(Cl)cc(Nc2n[nH]c(N)n2)cc1Cl [Compound I-79, N^3-[3,5-Dichloro-4-(3,3-dimethyl-but-1-ynyl)-phenyl]-1H-[1,2,4]triazole-3,5-diamine] | 3.31 | 0.051 | 66 |
| Nc1nc(Nc2cc(F)cc(C(F)(F)F)c2)n[nH]1 [Compound I-57, N^3-(3-Fluoro-5-trifluoromethyl-phenyl)-1H-[1,2,4]triazole-3,5-diamine] | 0.624 | 0.146 | 100 |
| Nc1nc(Nc2cccc(Cl)c2)n[nH]1 [Compound I-36, N*3*-(3-Chloro-phenyl)-1H-[1,2,4]triazole-3,5-diamine] | 28.6 | 1.84 | 100 |
| CC(C)(C)c1cc(Nc2n[nH]c(N)n2)cc(C(C)(C)C)c1 [Compound I-19, N*3*-(3,5-Di-tert-butyl-phenyl)-1H-[1,2,4]triazole-3,5-diamine] | 56.8 | 44.7 | 87.8 |
| Cc1c(Cl)cc(Nc2n[nH]c(N)n2)cc1Cl [Compound I-38, N*3*-(3,5-Dichloro-4-methyl-phenyl)-1H-[1,2,4]triazole-3,5-diamine] | 0.75 | 0.023 | 79.4 |
| Nc1nc(Nc2cccc(OC(F)(F)F)c2)n[nH]1 [Compound I-52, N^3-(3-Trifluoromethoxy-phenyl)-1H-[1,2,4]triazole-3,5-diamine] | 12.6 | 2.39 | 100 |
| Nc1nc(Nc2ccc(OCc3ccccc3)c(Cl)c2)n[nH]1 [Compound I-37, N*3*-(4-Benzyloxy-3-chloro-phenyl)-1H-[1,2,4]triazole-3,5-diamine] | 13.4 | 0.92 | 33.3 |
| Nc1nc(Nc2cc(Cl)c(Br)c(C(F)(F)F)c2)n[nH]1 [Compound I-42, N3-(4-bromo-3-chloro-5-(trifluoromethyl)phenyl)-1H-1,2,4-triazole-3,5-diamine] | 0.404 | 0.081 | – |
| Nc1nc(Nc2ccc(C(=O)N3CCOCC3)cc2)n[nH]1 [Compound I-23, [4-(5-Amino-1H-[1,2,4]triazol-3-ylamino)-phenyl]-morpholin-4-yl-methanone] | 100 | 100 | 100 |
| Nc1nc(Nc2cccc(S(=O)(=O)C(F)(F)F)c2)n[nH]1 [Compound I-4, N^3-(3-Trifluoromethanesulfonyl-phenyl)-1H-[1,2,4]triazole-3,5-diamine] | 0.823 | 0.412 | 100 |
| Nc1nc(Nc2ccc(S(N)(=O)=O)cc2)n[nH]1 [Compound I-25, 4-(5-Amino-1H-[1,2,4]triazol-3-ylamino)-benzenesulfonamide] | 100 | 86.4 | 100 |
| Nc1nc(Nc2ccc(S(=O)(=O)C(F)(F)F)cc2)n[nH]1 [Compound I-17, N*3*-(4-Trifluoromethanesulfonyl-phenyl)-1H-[1,2,4]triazole-3,5-diamine] | 14.2 | 12.6 | 100 |
| Nc1nc(Nc2ccc(Cl)c(C(F)(F)F)c2)n[nH]1 [Compound I-51, N^3-(4-Chloro-3-trifluoromethyl-phenyl)-1H-[1,2,4]triazole-3,5-diamine] | 3.44 | 0.475 | 53.7 |
| Nc1nc(Nc2ccc(C#Cc3ccccc3)c(Cl)c2)n[nH]1 [Compound I-14, N*3*-(3-Chloro-4-phenylethynyl-phenyl)-1H-[1,2,4]triazole-3,5-diamine] | 32.7 | 5.34 | 100 |
